Data: ChEMBL document CHEMBL2396603, “Heterocyclic modification of a novel bicyclo[3.1.0]hexane NPY1 receptor antagonist” (Bioorg Med Chem Lett, 2013)
Converted amounts (≈) assume the structure as drawn. The source made the active and inactive calls. The rule behind the calls is not given here.

What was measured:
[1] = molecular target: T1, Neuropeptide Y receptor type 1 (Homo sapiens, UniProt P25929); test: Displacement of [125I]PYY from NPY1 receptor in human SK-N-MC cells after 1 hr by microbeta scintillation counting analysis; assay type: cell-based
T1 sequence (P25929 whole entry): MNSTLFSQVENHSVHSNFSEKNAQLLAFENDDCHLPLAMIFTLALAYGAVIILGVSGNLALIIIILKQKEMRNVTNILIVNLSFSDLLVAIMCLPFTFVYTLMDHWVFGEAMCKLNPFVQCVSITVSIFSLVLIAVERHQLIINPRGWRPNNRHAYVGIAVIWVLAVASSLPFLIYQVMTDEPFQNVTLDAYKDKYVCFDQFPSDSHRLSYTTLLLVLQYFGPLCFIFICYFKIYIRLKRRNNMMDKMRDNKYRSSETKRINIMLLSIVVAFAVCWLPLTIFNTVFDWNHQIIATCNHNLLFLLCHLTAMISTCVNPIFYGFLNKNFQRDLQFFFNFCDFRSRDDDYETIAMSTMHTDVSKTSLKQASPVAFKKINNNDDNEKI

[2] = Aqueous solubility of the compound in 40% aqueous trappsol; assay type: physicochemical
[3] = Oral bioavailability in rat at 20 mg/kg; assay type: ADME, organism-based; details: in vivo
[4] = Drug uptake in rat brain at 10 mg/kg, ip after 15 mins; assay type: ADME, organism-based; parameters: dose 10 mg/kg, route intraperitoneal; details: read-out: Drug uptake
[5] = Bioavailability in rat at 10 mg/kg, ip; assay type: ADME, organism-based; details: in vivo
Rattus norvegicus [6] = test: Antiobesity activity in Sprague-Dawley rat spontaneous nocturnal feeding model assessed as reduction in food intake at 10 to 30 mg/kg, ip administered 1 hr before onset of darkness measured during first hour and first 3 hrs of darkness; assay type: functional, organism-based
Rattus norvegicus [7] = test: Antiobesity activity in Sprague-Dawley rat spontaneous nocturnal feeding model assessed as reduction in food intake at 35.6 to 60 mg/kg, po administered 2.5 hrs before onset of darkness measured during first hr; assay type: functional, organism-based

Row | SMILES | IC50 [1] [µM] | also measured
1 | CCOc1cccc(C2(N3CCN(c4cccc(OC)n4)CC3)C3CC(C)CC32)c1 (stereo unspecified) | > 10 | 
2 | CCOc1cccc(C2(N3CCN(c4ccccn4)CC3)C3CC(C)CC32)c1 (stereo unspecified) | 0.042 | solubility [2]: > 50000 µg/mL; bioavailability [3]: 53%; concentration at 0.25 h [4]: > 100 nM; bioavailability [5]: 40%; Activity (Rattus norvegicus [6]): Active; Activity (Rattus norvegicus [7]): Active
3 | CCOc1cccc(C2(N3CCN(c4ccccc4)CC3)C3CC(C)CC32)c1 (stereo unspecified) | 0.062 | 
4 | CCOc1cccc(C2(N3CCN(c4cccnn4)CC3)C3CC(C)CC32)c1 (stereo unspecified) | 4.38 | 
5 | CCOc1cccc(C2(N3CCN(c4cccnc4)CC3)C3CC(C)CC32)c1 (stereo unspecified) | 0.892 | 
6 | CCOc1cccc(C2(N3CCN(c4ccncc4)CC3)C3CC(C)CC32)c1 (stereo unspecified) | > 10 | 
7 | CCOc1cccc(C2(N3CCN(c4ncncn4)CC3)C3CC(C)CC32)c1 (stereo unspecified) | 4.27 | 
8 | CCOc1cccc(C2(N3CCN(c4cncnc4)CC3)C3CC(C)CC32)c1 (stereo unspecified) | 5.03 | 
9 | CCOc1cccc(C2(N3CCN(c4ncccn4)CC3)C3CC(C)CC32)c1 (stereo unspecified) | 0.054 | solubility [2]: 10000 µg/mL (≈ 26.4 mM)
10 | CCOc1cccc(C2(N3CCN(c4ccccc4N)CC3)C3CC(C)CC32)c1 (stereo unspecified) | > 10 | 
11 | CCOc1cccc(C2(N3CCN(c4ccc(Cl)nn4)CC3)C3CC(C)CC32)c1 (stereo unspecified) | > 10 | 
12 | CCOc1cccc(C2(N3CCN(c4cnccn4)CC3)C3CC(C)CC32)c1 (stereo unspecified) | 0.265 | 
13 | CCOc1cccc(C2(N3CCNCC3)C3CC(C)CC32)c1 (stereo unspecified) | > 10 | 
14 | CCOc1cccc(C2(N3CCN(Cc4ccccc4)CC3)C3CC(C)CC32)c1 (stereo unspecified) | > 10 | 
